Data: a melting point compilation (Tetko et al.; mined from patent text by program, amines drawn as free bases though some values may be those of a salt)

SMILES	melting point
CCCC=Cc1c(C(C)C)nc(C(C)C)c(CO)c1-c1ccc(-c2ccccc2)cc1	50 to 52 °C
CCCC(=O)C(=CNc1ccc(CO)cc1)C(=O)OCC	44 to 46 °C
CSc1ccc(-c2cnc3ccc(-c4nnc(C)o4)cn23)cc1	180 to 181 °C
Cc1ccc(S(=O)(=O)n2ccc3cc(Br)ccc32)cc1	135 °C
COc1ccc2nc(Cl)nc(Nc3ccccc3)c2c1	177 to 179 °C
O=C(c1cc(-c2ccccc2)c(N2CCOCC2)s1)c1ccc(Cl)cc1Cl	198 to 199 °C
NC(=O)Cn1c(-c2ccccc2)nc2cccnc21	226 to 227 °C
Cc1oc(-c2ccccc2)nc1COc1ccc(COc2nn(C)cc2CC(=O)O)cc1	133 to 134 °C
CNC(=O)c1cc2c(Oc3ccc(OC(F)(F)F)cc3)cncc2s1	132 to 133 °C
O=C(O)/C=C/C#Cc1cccc(S(=O)(=O)Nc2ccccc2)c1	188 to 190 °C
CCc1nc2c(N)nc3ccccc3c2n1CCCCNC(=O)C(C)C	155 to 156 °C
FC(F)Oc1ccc(C2=NNCC2n2cc(Cl)cn2)cc1 (stereo not given)	93 °C
COc1cccc(-c2cc(=O)c3cccc(C(=O)Nc4ccc(CCCCN5CCc6cc(OC)c(OC)cc6C5)cc4)c3o2)c1	152 °C
Cc1ccc(-c2cccc(C(N)=O)c2)cc1	200 to 205 °C
Cc1ccc(N2C(=O)C(O)=C(C(=O)c3ccc(C(C)C)cc3)C2c2ccc(N(C)C)cc2)nn1 (stereo not given)	283 to 286 °C
CCCc1c([C@@H]2C[C@H]2c2ccccc2)oc2ccc(C(=O)O)cc2c1=O (relative stereo)	195 to 196 °C
CCc1nc2c(C)cc(C)nc2n1Cc1ccc(NCC2CCNCC2)cc1	165 to 168 °C
OC(c1ccccc1)C(CN1CC=C(c2ccc(Cl)cc2)CC1)c1ccccc1 (stereo not given)	135 to 137 °C
COc1cc2ncnc(Nc3cccc(Br)c3)c2cc1OCC1CO1 (stereo not given)	230 to 245 °C
CSc1nc(=O)n(C2CCCCC2)c(=O)n1C	137 to 139 °C
CCCc1nn(-c2ccc(C(F)(F)F)cn2)cc1CCCOc1ccc(CCC(=O)O)c(OCC)c1	119 to 120 °C
Cc1cc(Cl)ccc1NC(=O)c1cccc(S(=O)(=O)N(C)c2ccc(Br)cc2)c1	163 to 164 °C
O=C1Nc2ccccc2C1=Cc1ccccn1	204 to 205 °C

SMILES	melting point
COc1cncnc1N1CCN(CCCc2c[nH]c3ccc(N(C)S(=O)(=O)C(F)(F)F)cc23)CC1	> 230 °C
O=c1cc(N2CCOCC2)oc2c(O)cccc12	240 to 247 °C
CC1=C(C(N)=O)C(c2ccccc2)(N2CCN(c3ccc(F)cc3C)CC2)NO1 (stereo not given)	139 to 141 °C
CCOC(=O)C1CC2=C(CO1)C(=O)C(Cl)=CC2=O (stereo not given)	83.5 °C
COc1cc2ncnc(N3CCC(C(C)CN4CCCS4(=O)=O)CC3)c2cc1OC (stereo not given)	129 to 131 °C
O=C(O)C=CC(=O)Nc1ccc(C(=O)O)cc1	217 to 219 °C
Oc1ccc(C2(c3ccccc3)OCCCC2c2ccccc2)cc1 (stereo not given)	194 to 196 °C
CCCCSc1ccc2c3c(cccc13)C(=O)N2	126 to 129 °C
CC(C)(C)c1ccc(Oc2ccc(NC(=O)c3ccccc3C(c3ccc(O)cc3)c3ccc(O)cc3)cn2)cc1	121 to 125 °C
CCOc1ccc(C(=O)Nc2ccccc2)cc1Nc1cccc(C(F)(F)F)c1	184 to 185 °C
CCCc1nc2c(N)nc3cc(-c4cncc(CO)c4)ccc3c2n1CC(C)(C)O	225 to 226 °C
CCCC[C@H](NC(=O)[C@H](CCC)NC(=O)OCc1ccccc1)C(=O)CSCc1ccco1	95 to 96 °C
COC(=O)CCCc1cc2nc(Cl)ccc2n1S(=O)(=O)c1ccc(N(C)C)cc1Cl	123 to 124 °C
COC(=O)CCCCC(=O)Nc1c(I)c(C(=O)O)c(I)c(N(C)C(C)=O)c1I	229 to 232 °C
COc1cc(SC)c(C)cc1OCCBr	66 to 67 °C
CCCCCCNC(=O)Oc1ccc2oc3ccccc3c2c1	109 to 110 °C
C[C@H]1CN(c2c(F)cc3c(=O)c(C(=O)O)cn(C4CC4)c3c2Br)C[C@H]1N (relative stereo)	186 to 190 °C
CN(C)Cc1cc2ccc(-c3nnc(CSCCOc4ccccc4)o3)cc2n1S(C)(=O)=O	127 to 130 °C
Cc1nc2cc3c(cc2c(=O)[nH]1)C(N(C)c1ccc(C(=O)NC(CCc2nnn(CC(=O)O)n2)C(=O)O)c(F)c1)CC3 (mixture of isomers)	196 to 199 °C
C=CCN(CC=C)C(=O)C1CC(C)(C)NC(C)(C)C1	64 to 67 °C
CC(=O)c1ccc(CC(C)C)c(C#N)c1	71 to 72 °C
c1ccc(-c2ccc(CN3Cc4cccn4Cc4ccccc43)cc2)cc1	135 to 137 °C
COCCCN1C(=O)COc2ccc(Br)cc21	193 to 195 °C

Next, values leading:

melting point	SMILES
99 to 101 °C	COc1ccc(C2CNC(=O)C2)cc1OS(=O)(=O)C(F)(F)F (stereo not given)
166 to 167 °C	COC(=O)C1C(=O)N(C)C(=O)c2ccc(Cl)cc21 (stereo not given)
178 to 180 °C	O=C1NCCCN1C1CCN(Cc2ccccc2)CC1
78 to 80 °C	CCCCCCCCCCNC(=O)C=Cc1cccc(N2CC(C(=O)OCCN(CC)CC)CC2=O)c1 (stereo not given)
88 to 91 °C	CCc1c(C)c(=O)n(-c2cc(OC(C)C)c(Cl)cc2F)c(=O)n1C
124 to 125 °C	CC1(C)CCC(C)(C)c2cc(N(CCCCO)C(=O)Nc3cccc(C(=O)O)c3)ccc21
147 to 148 °C	C#CCOc1cc(Cl)ccc1-n1c(=O)cc(C(F)(F)F)n(C)c1=O
265 °C	O=C(Nc1cccc(Oc2ccc3nc(NC(=O)C4CC4)cn3n2)c1)c1ccccc1
100 to 101 °C	CCN1CCN(C2=Nc3cc(Cl)ccc3Oc3ccccc32)CC1
157 °C	O=C(Oc1ccccc1)c1cc([N+](=O)[O-])c2ccccc2c1O
176 to 178 °C	Cc1c(NC(=O)c2ccc(-c3ccc(F)cc3)c(F)c2)ccc2cc(CN3CCCC3)cnc12
150 to 155 °C	CCCCCCOc1ccc(-c2ncc(-c3ccc(O)c(F)c3F)cn2)cn1
238 to 241 °C	O=C(O)c1ccc(S(=O)(=O)Nc2ccc(F)c(C(F)(F)F)c2)cc1
98 to 99 °C	Cc1csc(C2CCN(CCCC(O)c3ccc(F)cc3)CC2)n1 (stereo not given)
97 °C	O=C(NOC(=O)c1ccc(Cl)cc1)OCc1ccccc1
290 to 293 °C	Cn1cc(C=CC(=O)Nc2ccc(O)cc2)c([N+](=O)[O-])n1
215 to 216 °C	CCCc1nc2c(N)nc3cc(C(F)(F)F)ccc3c2s1
119 to 121 °C	O=S(=O)(NCCCN1c2ccccc2CCc2ccc(Cl)cc21)c1ccc(OC(F)(F)F)cc1
111 °C	O=C(CBr)c1ccc(S(=O)(=O)Cl)cc1
148 to 150 °C	COc1ccccc1Oc1c(Cl)nc(SC)nc1Cl
164 to 165 °C	CCC(=O)C(CCCCCCCCc1ccc(O)cc1)C(=O)CC
171 to 172 °C	Cc1cccc(C)c1CNc1cc(C(=O)N(C)C)cc2c1nc(CO)n2C
228 to 229 °C	CC(C)(N)c1ccc(-c2nc(Nc3ccc(F)cc3)ncc2C#N)cc1
147 to 149 °C	COc1nc(C(F)(F)F)cc(=O)n1-c1cc(O)c(Cl)cc1F
